From patent publication US10570104B2, “Metabolically programmed metal chelators and uses thereof” (University of Florida Research Foundation, Incorporated, priority 2015, dated 2020)
“Also recorded” adds a separate entry of the source. Like-named read-outs stand apart in the source and are kept apart here.

How the values were obtained:
[1] = log Papp, octanol/TRIS buffer pH 7.4, shake flask direct method; assay type: physicochemical; conditions: not told
From the text: The redesign of 2 was predicated on the observation that both ligands 2 and 3 were orally active iron chelators in rodents and primates (Table 1), and that when the 4′-(OH) of 2 was methylated, providing (S)-4,5-dihydro-2-(2-hydroxy-4-methoxyphenyl)-4-methyl-4-thiazolecarboxylic acid^43 [(S)-4′-(CH3O)-DADFT, 4], there was a remarkable enhancement in both ICE and lipophilicity (log Papp). The log Papp data are expressed as the log of the fraction of the chelator seen in the octanol layer; measurements were done in TRIS buffer, pH 7.4, using a “shake flask” direct method.^49 The more negative the log Papp, the less chelator is in the octanol phase, the less lipophilic. Unfortunately, the increase in ICE of 4 came with a concomitant increase in toxicity.^50 Thus, the delicate balance between the increase in ICE and toxicity with enhanced lipophilicity needed to be understood and exploited.

[2] = 150 μmol/kg, cited from earlier work
[3] = 150 μmol/kg, cited from earlier work; remark: listed apart in the source
[4] = 2:1 complex with Fe(III), cited from earlier work
[5] = rats; cited from earlier work
[6] = rats; cited from earlier work; remark: listed apart in the source

| SMILES | Log Papp [1] | Rodent ICE (%) ([2]; po) | Primate ICE (%) ([3]; po, historical) | cumulative formation constant [4] [M⁻¹] | cumulative formation constant ([4]; unit not given) | nephrotoxicity [5] | Rodent ICE (%) ([2]; sc) | Primate ICE (%) ([3]; sc) | effect on colitis [6] |
| --- | --- | --- | --- | --- | --- | --- | --- | --- | --- |
| C[C@]1(C(=O)O)CSC(c2ncccc2O)=N1 [Compound 1, (S)-4,5-dihydro-2-(3-hydroxy-2-pyridinyl)-4-methyl-4-thiazolecarboxylic acid] | −1.77 | 5.5±3.2 | 16.1±8.5 | 4e+29 | 4×10^29 | severe nephrotoxicity; also recorded: unacceptable renal toxicity |  |  |  |
| CC(=O)N(O)CCCCCNC(=O)CCC(=O)N(O)CCCCCNC(=O)CCC(=O)N(O)CCCCCN [DFO, desferrioxamine B] |  |  |  |  |  |  | 2.5 ± 0.7 | 5.5 ± 0.9 | prevent acetic acid-induced colitis |
